# Measurements from patent US11542234B2, “2-alkoxy-6-[18F]fluoronicotinoyl substituted lys-c(O)-glu derivatives as efficient probes for imaging of PSMA expressing tissues” (Universität zu Köln, priority 2018, dated 2023).
# Like-named read-outs stand apart in the source and are kept apart here.
# Legend:
# PSMA^+ LNCaP C4-2 cells = experiment: Cellular uptake in PSMA positive LNCaP C4-2 cells; type: cell-based; details: for cellular uptake under inhibition with 2-PMPA: in the presence of 2-PMPA (100 μM/well)
# Protocol: (§1) The PSMA specificity of the tracer uptake in LNCaP C4-2 was confirmed by complete inhibition with 2-PMPA (≤0.1% ID/10^5 cells). The enrichment of both tracers in PSMA^− PC3 cells was negligible (≤0.1% ID/10^5 cells).
# (§2) PSMA^− PC-3 cells were cultured in RPMI-1640 medium supplemented with FBS (10%) and penicillin/streptomycin (1%). PSMA* LNCaP C4-2 cells were cultured in a mixture of DMEM: Ham's F-12K (Kaighn's) mediums (4:1) supplemented with FBS (5%), NaHCO3(3 g/L), insulin (5 μg/mL), triiodothyronine ([…]), transferrin (5 μg/mL), biotin (0.25 μg/ml) and adenine (25 μg/mL). Both cell lines were grown in 75 mL flasks containing 10 mL of the culture medium in a humidified atmosphere of 5% CO2/95% air at 37° C. for 4-5 days until they reached 80-90% confluency. Cells were seeded into 12-well plates (1×10^5 cells/well containing 1 mL medium) 24 h before the beginning of the cellular uptake experiments.
# 2-(Phosphonomethyl)pentanedioic acid (2-PMPA; 100 μM/well) was used for blocking studies. Thereafter, the cells were washed two times with medium (1 mL), trypsinized, harvested and the accumulated radioactivity was measured in a gamma counter (Wizard 1470, PerkinElmer, Massachusetts, USA). The cellular uptake of the novel PSMA-selective candidates and [^18F]DCFPyL obtained in experiments performed in parallel were compared. Each cellular uptake experiment was carried out in triplicate.
# PSMA [1] = target: T1, PSMA (Homo sapiens, UniProt Q04609); experiment: Pilot PET/CT study in 10 patients, comparison with [68Ga]Ga-PSMA-HBED-CC; type: in vivo
# T1 construct: from tissue; host or cells: patients with prostate cancer or biochemical recurrence, in vivo PET/CT
# T1 sequence (Q04609 whole entry): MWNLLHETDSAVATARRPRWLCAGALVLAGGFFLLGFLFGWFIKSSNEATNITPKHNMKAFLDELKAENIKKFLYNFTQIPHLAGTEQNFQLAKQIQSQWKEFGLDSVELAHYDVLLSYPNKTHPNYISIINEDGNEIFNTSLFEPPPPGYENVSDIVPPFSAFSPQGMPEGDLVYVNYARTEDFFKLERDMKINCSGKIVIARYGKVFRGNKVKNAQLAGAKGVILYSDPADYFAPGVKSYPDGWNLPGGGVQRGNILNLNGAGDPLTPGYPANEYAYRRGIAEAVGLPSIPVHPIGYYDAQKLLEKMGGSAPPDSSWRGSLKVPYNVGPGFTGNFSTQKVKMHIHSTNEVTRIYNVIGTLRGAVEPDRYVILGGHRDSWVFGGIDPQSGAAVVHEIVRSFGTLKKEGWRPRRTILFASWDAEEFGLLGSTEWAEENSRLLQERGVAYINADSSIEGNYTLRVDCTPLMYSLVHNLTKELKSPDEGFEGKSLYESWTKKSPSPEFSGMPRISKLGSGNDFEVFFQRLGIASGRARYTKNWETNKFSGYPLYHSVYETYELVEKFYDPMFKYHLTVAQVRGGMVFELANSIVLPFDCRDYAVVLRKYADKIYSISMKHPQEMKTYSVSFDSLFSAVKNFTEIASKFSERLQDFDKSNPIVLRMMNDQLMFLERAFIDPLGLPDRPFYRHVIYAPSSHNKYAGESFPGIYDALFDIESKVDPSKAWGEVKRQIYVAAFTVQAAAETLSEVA
# Protocol: Owing to the favorable imaging properties of 2-MeO-[^18F]PSMA in rats a small pilot study with this tracer in 10 patients was conducted. All patients were examined with both [^68Ga]Ga-PSMA-HBED-CC and 2-MeO-[^18F]PSMA PET CT. In each case, both PET/CT scans were carried out within three weeks. […] In four patients, at least one additional PSMA-positive lesion using 2-MeO-[^18F]PSMA compared to the corresponding [^68Ga]Ga-PSMA-HBED-CC image was identified (FIG. 6B). In one patient inconspicuous in the [^68Ga]Ga-PSMA-HBED-CC scan, a PSMA-positive lesion was discovered by 2-MeO-[^18F]PSMA PET/CT (FIG. 6C).
# (§3) The study was conducted in accordance with the Institutional Review Board. All patients gave written informed consent to PET imaging and inclusion of their data in a retrospective analysis. All procedures were performed in compliance with the regulations of the responsible local authorities (District Administration of Cologne, Germany).
# (§4) All measurements with [^68Ga]Ga-PSMA-HBED-CC and [^18F]-2-MeO-PSMA were carried out as described in the literature.^[14a, 15]
# PSMA [2] = target: T1, PSMA; experiment: PSMA-PET imaging of patients with biochemical recurrence of prostate cancer; type: in vivo; details: 124 patients with biochemical recurrence (BCR) of PCa
# Protocol: In the subsequent larger study, 124 patients with biochemical recurrence (BCR) of PCa were examined.
# as §3, §4
# PSMA [3] = target: T2, PSMA (Rattus norvegicus, UniProt P70627); experiment: PET study of PSMA-specific tracers in healthy rats; type: in vivo; details: for signal-to-noise ratio (SCG), printed in text with / SCG signal-to-noise ratio / SCG % ID / Bone % ID / Liver % ID: PET 60-120 min after injection; for SCG signal-to-noise ratio: background dorsal from cervical vertebral column
# T2 construct: ganglia as natural PSMA-expressing tissues remain constant over a long time; from tissue; host or cells: healthy Long Evans rats in vivo
# T2 sequence (P70627 whole entry): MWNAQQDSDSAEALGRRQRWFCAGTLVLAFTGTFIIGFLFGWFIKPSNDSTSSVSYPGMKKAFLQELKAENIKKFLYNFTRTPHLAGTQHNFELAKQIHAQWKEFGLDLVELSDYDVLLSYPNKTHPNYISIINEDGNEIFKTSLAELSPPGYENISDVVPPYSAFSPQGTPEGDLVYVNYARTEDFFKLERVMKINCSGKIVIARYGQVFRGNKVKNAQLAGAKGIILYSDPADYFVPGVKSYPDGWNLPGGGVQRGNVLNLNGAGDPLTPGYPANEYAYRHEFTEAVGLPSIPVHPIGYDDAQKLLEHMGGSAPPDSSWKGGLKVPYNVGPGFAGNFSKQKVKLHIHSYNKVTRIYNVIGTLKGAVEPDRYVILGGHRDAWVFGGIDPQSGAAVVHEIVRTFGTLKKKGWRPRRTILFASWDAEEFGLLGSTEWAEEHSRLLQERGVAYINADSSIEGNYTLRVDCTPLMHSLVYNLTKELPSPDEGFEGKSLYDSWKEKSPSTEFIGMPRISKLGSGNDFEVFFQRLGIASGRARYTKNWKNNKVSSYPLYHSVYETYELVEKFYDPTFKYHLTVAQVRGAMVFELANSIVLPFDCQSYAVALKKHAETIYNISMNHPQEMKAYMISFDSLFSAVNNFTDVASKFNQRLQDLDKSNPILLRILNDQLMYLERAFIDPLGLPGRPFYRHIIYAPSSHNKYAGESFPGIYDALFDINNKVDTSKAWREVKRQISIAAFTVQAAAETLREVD
# Description: Ganglia represent an ideal tissue for the evaluation of PSMA binding imaging probes. Having a size of 1-2 mm these structures are sufficiently small to imitate metastases in a very early stage. Ganglionic PSMA is expressed by satellite glial cells, which envelop the neuronal cell bodies of the trigeminal ganglion,^[25] spinal dorsal root ganglia and ganglia of the autonomic nervous system.^[26] […] Rat PSMA comprises 752 amino acids (vs. 750 in humans), and has about 91% homology to the human PSMA. Importantly, all amino acid residues of the active site are essentially the same as those in the human homologue with the only exception of Gly^548 in the human and Ser^548 in the rat protein, respectively^[28]
# Conditions: Uptake of different PSMA-specific tracers in healthy rats measured by PET. Conditions: PET scanner (Focus 220, Siemens); 57-71 MBq tracer was injected. PET scans started 60 min after injection and continued for 60 min. % ID was determined by dividing each image by the injected dose and multiplying it by body weight. […] Background activity for calculation of signal-to-noise ratio was measured dorsal from the cervical vertebral column with a 390 mm^3 VOI.
# Animals: Experiments were carried out in accordance with the EU directive 2010/63/EU for animal experiments and the German Animal Welfare Act (TierSchG, 2006), and were approved by regional authorities (LANUV NRW). Long Evans rats (250-590 g body weight) were used for this study. Rats were housed in pairs in individually ventilated cages (NexGen EcoFlo, cages RAT1800 with 1805 cm^2 floor space and 41 cm height; Allentown Inc., Allentown, N.J., USA) under controlled ambient conditions (22±1° C. and 55±5% relative humidity) on an inversed 12 hour light/dark schedule (lights on 9:00 p.m.-9:00 a.m.). Food and water were available at all times. Three rats received two, and one rat received three different tracers. The other seven rats were measured with one tracer only. Each tracer was measured in three animals.
# PET-imaging: Prior to PET measurements with PET probes, animals were anesthetized (initial dosage: 5% isoflurane in 02/air (3:7), then reduction to 2%), and a catheter for tracer injection was inserted into the lateral tail vein. Rats were placed on an animal holder (Medres, Cologne, Germany), and fixed with a tooth bar in a respiratory mask. Dynamic PET scans in a list mode were performed using a Focus 220 micro PET scanner (CTI-Siemens, Germany) with a resolution at a center of field of view of 1.4 mm. Data acquisition started with tracer injection (66±14 MBq in 0.5 mL i.v.), continued for 120 min and was followed by a 10 min transmission scan using a ^57Co point source. For blocking studies 2-(phosphonomethyl)pentanedioic acid (2-PMPA; 23 mg/kg) was added directly to a radiotracer solution. Breathing rate was monitored and kept around 60/min by adjusting isoflurane concentration (1.5-2.5%). Body temperature was maintained at 37° C. by a feedback-controlled system. Following Fourier rebinning, data were reconstructed using an iterative OSEM3D/MAP procedure78 including attenuation and decay correction in two different ways: 1) 28 frames (2×1 min; 2×2 min, 6×4 min, 18×5 min) for compilation of regional time activity curves; 2) 4 frames (4×30 min) for visual display. Resulting voxel sizes were always 0.38×0.38×0.79 mm.
# Data analysis was performed using the software VINCI.79 Images were Gauss filtered (1 mm FWHM), and % ID was determined by dividing each image by the injected dose and multiplying the result by body weight times 100. Mean % ID values were extracted from each of the 28 frames and plotted over time.
# PSMA^− PC-3 cells = experiment: Cellular uptake in PSMA negative PC3 cells; type: cell-based
# Protocol: as §1, §2
# The corresponding PSMA specific PET probe was added to the cells (100-150 kBq/well) and the cells were incubated at 37° C. for 1 and 2 h. 2-(Phosphonomethyl)pentanedioic acid (2-PMPA; 100 μM/well) was used for blocking studies. Thereafter, the cells were washed two times with medium (1 mL), trypsinized, harvested and the accumulated radioactivity was measured in a gamma counter (Wizard 1470, PerkinElmer, Massachusetts, USA). […]
# [4] = meta-analysis of data of 251 patients, detecting recurrent PCa; cited from earlier work
# PSMA [5] = target: T1, PSMA; details: determined earlier, for comparison; cited from earlier work
# [6] = 2 h incubation, 2-MeO-[18F]PSMA and [18F]DCFPyL in parallel (FIG. 4A)
# [7] = 4 h incubation, 2-MeO-[18F]PSMA and [18F]DCFPyL in parallel (FIG. 4A)
# [8] = 2 h incubation, 4-MeO-[18F]PSMA and [18F]DCFPyL in parallel (FIG. 4B)
# [9] = 4 h incubation, 4-MeO-[18F]PSMA and [18F]DCFPyL in parallel (FIG. 4B)
# [10] = co-application of 2-PMPA (23 mg/kg)
SMILES,cellular uptake (PSMA^+ LNCaP C4-2 cells; [6]) [% ID/10^5 cells],cellular uptake (PSMA^+ LNCaP C4-2 cells; [7]) [% ID/10^5 cells],cellular uptake under inhibition with 2-PMPA (PSMA^+ LNCaP C4-2 cells),"signal-to-noise ratio (SCG), printed in text with (PSMA [3])",SCG signal-to-noise ratio (PSMA [3]),SCG % ID (PSMA [3]; superior cervical ganglion) [% ID],cellular uptake (PSMA^+ LNCaP C4-2 cells; [8]) [% ID/10^5 cells],cellular uptake (PSMA^+ LNCaP C4-2 cells; [9]) [% ID/10^5 cells],Bone % ID (PSMA [3]) [% ID],Liver % ID (PSMA [3]) [% ID],other results
COc1nc([18F])ccc1C(=O)NCCCC[C@H](NC(=O)N[C@@H](CCC(=O)O)C(=O)O)C(=O)O [2-MeO-[^18F]PSMA],2.03±0.03,3.31±0.01,≤ 0.1 % ID/10^5 cells,8.2 ± 1.7,8.2 ± 1.7,31.3±10.5,–,–,–,–,patients inconspicuous in the [68Ga]Ga-PSMA-HBED-CC scan in whom a PSMA-positive lesion was discovered (PSMA [1]): one; patients with at least one additional PSMA-positive lesion compared to the corresponding [68Ga]Ga-PSMA-HBED-CC image (PSMA [1]; both PET/CT scans within three weeks): four; sensitivity (PSMA [2]): 83.0%
COc1cc([18F])ncc1C(=O)NCCCC[C@H](NC(=O)N[C@@H](CCC(=O)O)C(=O)O)C(=O)O [4-MeO-[^18F]PSMA],–,–,completely blocked,–,4.6±1.3,14.4±2.6,0.79±0.04,0.90±0.04,19.2±2.1,29.0±7.2,enrichment in PSMA^− PC3 cells (PSMA^− PC-3 cells): very low
O=C(O)CC[C@H](NC(=O)N[C@@H](CCCCNC(=O)c1ccc([18F])nc1)C(=O)O)C(=O)O [[^18F]DCFPyL],1.55±0.05,3.1±0.03,–,–,–,20.2 ± 5.8,1.53±0.03,3.16±0.01,12.4 ± 4.3,65.3 ± 21.7,uptake in the ganglion of the trigeminal nerve (PSMA [3]; 60-120 min after injection): 37.9±9.9 % ID; Liver % ID (PSMA [3]; [10]): remained at the same level; SCG % ID (PSMA [3]; [10]): 4.6±1.8 % ID
"N[C@]1(C(=O)O)C[C@@H]([18F])C1 [[^18F]FACBC, anti-1-amino-3-[^18F]fluorocyclobutane-1-carboxylic acid]",–,–,–,–,–,–,–,–,–,–,sensitivity [4]: 87%; specificity [4]: 66%
O=C(O)CC[C@H](NC(=O)N[C@@H](CCCCNC(=O)[C@H](Cc1ccc2ccccc2c1)NC(=O)c1ccc(CNC(=O)[C@H](CCC(=O)O)NC(=O)[C@H](CCC(=O)O)NC(=O)c2ccc([18F])nc2)cc1)C(=O)O)C(=O)O [[^18F]PSMA-1007],–,–,–,6.2 ± 1.9,6.2 ± 1.9,–,–,–,33.2±9.5,50.7 ± 4.3,–
O=C([O-])CN(CCN(CC(=O)[O-])Cc1cc(CCC(=O)NCCCCCC(=O)NCCCC[C@H](NC(=O)N[C@@H](CCC(=O)O)C(=O)O)C(=O)O)ccc1[O-])Cc1cc(CCC(=O)O)ccc1[O-].[68Ga+3].[OH3+] [[^68Ga]Ga-PSMA-HBED-CC],–,–,–,–,4.5±0.1,41.0±3.4,–,–,18.5 ± 0.6,47.0 ± 10.3,"sensitivity (PSMA [5]): 74.2%; SCG signal-to-noise ratio (PSMA [3]; listed as [^68Ga]PSMA-HBED-CC): 4.5 ± 0.1; SCG % ID (PSMA [3]; superior cervical ganglion, listed as [^68Ga]PSMA-HBED-CC): 41.0 ± 3.4 % ID"
